Reference: patent US10954216B2, “BMP-signal-inhibiting compound” (RIKEN, priority 2016, dated 2021)
Read-outs that look alike come from different tables or passages of the source.

Test system: BMP signal in MDA-231-D-BREFluc/Rluc cells
Assay: BMP signal inhibitory effect (AlphaScreen SureFire SMAD1 p-Ser463/465, BMP-6 stimulation)
Assay type: cell-based
Description: BMP Signal Inhibitory Effect
A BMP signal inhibitory activity of a compound of the present invention was evaluated according to the following method.
MDA-231-D-BREFluc/Rluc cells prepared according to the method described in Y. Katsuno et al., Oncogene, 27, 6322 (2008) were incubated at 37° C. for 2 hours together with test compounds, and BMP-6 (commercially available from R&D System, 507-BM-020) was then added thereto, and the mixture was additionally incubated at 37° C. for 30 minutes. A Lysis Buffer and Acceptor mix of AlphaScreen SureFire SMAD1 (p-Ser463/465) assay kit (commercially available from Perkin Elmer, TGRSM1S10K) were sequentially added thereto, the mixture was incubated at room temperature for 2 hours, and AlphaScreen Protein A kit (commercially available from Perkin Elmer, 6760617) was then added thereto, and standard AlphaScreen settings of Alpha Technology—compatible plate reader (commercially available from Perkin Elmer, EnSpire) was used for measurement.

[1] = BMP-6 stimulated MDA-231-D-BREFluc/Rluc cells, phospho-SMAD1 AlphaScreen, read-out: IC50

| Structure (SMILES) | IC50 [1] | IC50 |
| --- | --- | --- |
| CCn1cc(-c2ccnc(Nc3ccc(N4CCN(C)CC4)c(OC)c3)n2)c(-c2cccnc2)n1 [Example 47, 4-(1-ethyl-3-(pyridin-3-yl)-1H-pyrazol-4-yl)-N-(3-methoxy-4-(4-methylpiperazin-1-yl)phenyl)pyrimidin-2-amine] | 10.2 nM | – |
| COCCN1Cc2ccc(Nc3nccc(-c4cn(CCOC)nc4-c4cccnc4)n3)cc2C1 [Example 62, 2-(2-Methoxyethyl)-N-(4-(1-(2-methoxyethyl)-3-(pyridin-3-yl)-1H-pyrazol-4-yl)pyrimidin-2-yl)isoindolin-5-amine] | 10 nM | – |
| CCn1cc(-c2ccnc(Nc3ccc(N4CCC5(CC4)CN(C(C)=O)C5)cc3)n2)c(-c2cccnc2)n1 [Example 21, 1-(7-(4-((4-(1-ethyl-3-(pyridin-3-yl)-1H-pyrazol-4-yl)pyrimidin-2-yl)amino)phenyl)-2,7-diazaspiro[3.5]nonan-2-yl)ethan-1-one] | 39 nM | – |
| CCn1cc(-c2ccnc(Nc3ccc(-c4cn5ccccc5n4)cc3)n2)c(-c2cccnc2)n1 [Example 14, 4-(1-ethyl-3-(pyridin-3-yl)-1H-pyrazol-4-yl)-N-(4-(imidazo[1,2-a]pyridin-2-yl)phenyl)pyrimidin-2-amine] | 36.4 nM | – |
| CCn1cc(-c2ccnc(Nc3ccc(C(=O)N4CC5CCC(C4)N5C)cc3)n2)c(-c2cccnc2)n1 [Example 117, (4-((4-(1-Ethyl-3-(pyridin-3-yl)-1H-pyrazol-4-yl)pyrimidin-2-yl)amino)phenyl) (8-methyl-3,8-diazabicyclo [3.2.1]octan-3-yl)methanone] | – | 12 nM |
| CCn1cc(-c2ccnc(Nc3ccc(C(=O)N(C)C4CCN(C)CC4)cc3)n2)c(-c2cccnc2)n1 [Example 4, 4-((4-(1-ethyl-3-(pyridin-3-yl)-1H-pyrazol-4-yl)pyrimidin-2-yl)amino)-N-methyl-N-(1-methylpiperidin-4-yl)benzamide] | 16.3 nM | – |
| CN1CCc2cc(Nc3nccc(-c4cn(CC5CCOC5)nc4-c4cccnc4)n3)ccc2C1 (stereo not drawn) [Example 10, 2-Methyl-N-(4-(3-(pyridin-3-yl)-1-((tetrahydrofuran-3-yl)methyl)-1H-pyrazol-4-yl)pyrimidin-2-yl)-1,2,3,4-tetrahydroisoquinolin-6-amine] | 5.8 nM | – |
| CCn1cc(-c2ccnc(Nc3ccc(N4CCC(C)(N(C)C)CC4)cc3)n2)c(-c2cccnc2)n1 [Example 68, N-(4-(4-(Dimethylamino)-4-methylpiperidin-1-yl)phenyl)-4-(1-ethyl-3-(pyridin-3-yl)-1H-pyrazol-4-yl)pyrimidin-2-amine] | 6.8 nM | – |
| CCn1cc(-c2ccnc(Nc3cccc(OCCN(C)C)c3)n2)c(-c2cccnc2)n1 [Example 24, N-(3-(2-(dimethylamino)ethoxy)phenyl)-4-(1-ethyl-3-(pyridin-3-yl)-1H-pyrazol-4-yl)pyrimidin-2-amine] | 5.3 nM | – |
| CCn1cc(-c2ccnc(Nc3ccc(C4CC5CCC(C4)N5CCOC)cc3)n2)c(-c2cccnc2)n1 (stereo not drawn) [Example 85, 4-(1-Ethyl-3-(pyridin-3-yl)-1H-pyrazol-4-yl)-N-(4-(8-(2-methoxyethyl)-8-azabicyclo [3.2.1]octan-3-yl)phenyl)pyrimidin-2-amine] | – | 7.3 nM |
| CCn1cc(-c2ccnc(Nc3ccc(C4CCN(CCOC)C4)cc3)n2)c(-c2cccnc2)n1 (stereo not drawn) [Example 50, 4-(1-ethyl-3-(pyridin-3-yl)-1H-pyrazol-4-yl)-N-(4-(1-(2-methoxyethyl)pyrrolidin-3-yl)phenyl)pyrimidin-2-amine] | 6.3 nM | – |
| CCn1cc(-c2ccnc(Nc3ccc(N4CCN(CCOC)CC4)nc3)n2)c(-c2cccnc2)n1 [Example 84, 4-(1-Ethyl-3-(pyridin-3-yl)-1H-pyrazol-4-yl)-N-(6-(4-(2-methoxyethyl)piperazin-1-yl)pyridin-3-yl)pyrimidin-2-amine] | 19.3 nM | – |
| CCn1cc(-c2ccnc(Nc3cccc(N4CCNCC4)c3)n2)c(-c2cccnc2)n1 [Example 158, 4-(1-Ethyl-3-(pyridin-3-yl)-1H-pyrazol-4-yl)-N-(3-(piperazin-1-yl)phenyl)pyrimidin-2-amine] | 18.5 nM | – |
| CC(C)(O)Cn1cc(-c2ccnc(Nc3ccc4c(c3)CCN(C3COC3)C4)n2)c(-c2cccnc2)n1 [Example 131, 2-Methyl-1-(4-(2-((2-(oxetan-3-yl)-1,2,3,4-tetrahydroisoquinolin-6-yl)amino)pyrimidin-4-yl)-3-(pyridin-3-yl)-1H-pyrazol-1-yl)propan-2-ol] | 16.7 nM | – |
| CCn1cc(-c2ccnc(Nc3ccc(-n4cnc(N5CCN(C)CC5)n4)cc3)n2)c(-c2cccnc2)n1 [Example 180, 4-(1-ethyl-3-(pyridin-3-yl)-1H-pyrazol-4-yl)-N-(4-(3-(4-methylpiperazin-1-yl)-1H-1,2,4-triazol-1-yl)phenyl)pyrimidin-2-amine] | 9.1 nM | – |
| CCn1cc(-c2ccnc(Nc3ccc(C4CCN(CCOC)CC4)cc3)n2)c(-c2cccnc2)n1 [Example 58, 4-(1-ethyl-3-(pyridin-3-yl)-1H-pyrazol-4-yl)-N-(4-(1-(2-methoxyethyl)piperidin-4-yl)phenyl)pyrimidin-2-amine] | 4.4 nM | – |
| c1cncc(Cn2cc(-c3ccnc(Nc4ccc(N5CCNCC5)cc4)n3)c(-c3cccnc3)n2)c1 [Example 141, N-(4-(Piperazin-1-yl)phenyl)-4-(3-(pyr-3-yl)-1-(pyridin-3-ylmethyl)-1H-pyrazol-4-yl)pyrimidin-2-amine] | 55.2 nM | – |
| CCn1cc(-c2ccnc(Nc3cnn(C4CN(CC(C)(C)O)C4)c3)n2)c(-c2cccnc2)n1 [Example 48, 1-(3-(4-((4-(1-Ethyl-3-(pyridin-3-yl)-1H-pyrazol-4-yl)pyrimidin-2-yl)amino)-1H-pyrazol-1-yl)azetidin-1-yl)-2-methylpropan-2-ol] | 21.2 nM | – |
| COCCN1CCN(c2ccc(Nc3nccc(-c4cn(CC5COC5)nc4-c4cccnc4)n3)cc2)CC1 [Example 102, N-(4-(4-(2-Methoxyethyl)piperazin-1-yl)phenyl)-4-(1-(oxetan-3-ylmethyl)-3-(pyridin-3-yl)-1H-pyrazol-4-yl)pyrimidin-2-amine] | 50.4 nM | – |
| COCCN1CCN(c2ccc(Nc3nccc(-c4cn(C5CCOC5)nc4-c4cccnc4)n3)cc2)CC1 (stereo not drawn) [Example 76, N-(4-(4-(2-methoxyethyl)piperazin-1-yl)phenyl)-4-(3-(pyridin-3-yl)-1-(tetrahydrofuran-3-yl)-1H-pyrazol-4-yl)pyrimidin-2-amine] | 46.1 nM | – |
| CCn1cc(-c2ccnc(Nc3ccc(N4CCOCC4)cc3)n2)c(-c2cccnc2)n1 [Example 22, 4-(1-ethyl-3-(pyridin-3-yl)-1H-pyrazol-4-yl)-N-(4-morpholinophenyl)pyrimidin-2-amine] | 19 nM | – |
| CCn1cc(-c2ccnc(Nc3cccc(C4CCN(C)CC4)c3)n2)c(-c2cccnc2)n1 [Example 114, 4-(1-Ethyl-3-(pyridin-3-yl)-1H-pyrazol-4-yl)-N-(3-(1-methylpiperidin-4-yl)phenyl)pyrimidin-2-amine] | 0.9 nM | – |
| CCn1cc(-c2ccnc(Nc3ccc(C(=O)N(C)C4CC5CCC(C4)N5C(C)C)cc3)n2)c(-c2cccnc2)n1 (stereo not drawn) [Example 5, 4-((4-(1-Ethyl-3-(pyridin-3-yl)-1H-pyrazol-4-yl)pyrimidin-2-yl)amino)-N-(8-isopropyl-8-azabicyclo[3.2.1]octan-3-yl)-N-methylbenzamide] | – | 16.9 nM |
| CCn1cc(-c2ccnc(Nc3ccc(CCN4CCNCC4)cc3)n2)c(-c2cccnc2)n1 [Example 159, 4-(1-Ethyl-3-(pyridin-3-yl)-1H-pyrazol-4-yl)-N-(4-(2-(piperazin-1-yl)ethyl)phenyl)-pyrimidin-2-amine] | 15.2 nM | – |
